# System: serum sPLA2
# Assay: Effect of twice-a-day oral A-002 on serum sPLA2 levels in subjects with stable coronary artery disease (Example 6)
# Assay type: in vivo, human
# Experimental: The protocol for preparing standard curve, test, and quality control samples for use in the assay disclosed herein is set forth in Example 5. Samples are prepared according to this protocol, then loaded in duplicate onto a plate (Cayman catalog no. 485002 or equivalent) that has been pre-coated with a monoclonal sPLA2 antibody (“capture antibody”) that specifically binds sPLA2. In certain embodiments, the capture antibody may interact with a specific form of sPLA2, such as for example sPLA2 type IIA.
# sPLA2 acetylcholinesterase:Fab′ conjugate (AChE:Fab′) (“conjugate”) (Cayman catalog no. 485000 or equivalent) is reconstituted in EIA buffer (Cayman catalog no. 400060 or equivalent). Cayman EIA buffer is 1M phosphate, pH 7.0, 1% BSA, 4M NaCl, 10 mM EDTA, and 0.1% sodium azide. Reconstituted conjugate is added to each well of the plate. The conjugate binds a different sPLA2 epitope than the capture antibody, allowing the capture antibody and the conjugate to form a “sandwich” that is immobilized on the plate. Excess reagents are washed away, and the plate is covered and incubated overnight at 2-8° C.
# Prior to development, the wells are washed five to six times with wash buffer (Cayman catalog no. 400062 or equivalent). To develop the plate, Ellman's Reagent (Cayman catalog no. 400050 or equivalent) is reconstituted in water and added to each well according to manufacturer instructions. The reconstituted Ellman's Reagent must be used the same day it is prepared because it is unstable. Ellman's Reagent contains an AChE substrate. Specifically, Ellman's Reagent contains acetylthiocholine and 5,5′-dithio-bis-(2-nitrobenzoic acid). Hydrolysis of acetylthiocholine by acetylcholinesterase produces thiocholine, which reacts with 5,5′-dithio-bis-(2-nitrobenzoic acid) to produce 5-thio-2-nitrobenzoic acid. 5-thio-2-nitrobenzoic acid has a strong absorbance at 412 nm. The intensity of absorbance at this wavelength is directly proportional to the concentration of bound conjugate, which is in turn is directly proportional to the concentration of sPLA2 present (Absorbance a [AChE:Fab′ conjugate] α [sPLA2]). During the development step, the plate is shaken, preferably in the dark. In certain embodiments the development time for the assay is 0.5 to 3 hours, preferably 1 to 1.5 hours. At the end of the development period, the high sPLA2 standards should have greater yellow color development than the zero standards. Absorbance of each well is measured at 400-420 nm using a micro-well plate reader. In certain embodiments, absorbance is measured at about 405 nm.
# Absorbance readings for duplicate wells are averaged, and the relative standard deviation and % CV are calculated. Standard curve data are used to generate a four parameter curve, and quality control and test samples are measured against the appropriate standard curve (i.e., the standard curve with the same serum content). In order for a test to be considered valid, variation between duplicate wells should be no more than about 25%, and negative controls (blanks) for each standard curve should have a mean absorbance of less than about 0.3.
# The method disclosed herein for measuring sPLA2 levels in serum was utilized to determine the effect of administering certain sPLA2 inhibitors on sPLA2 levels in 84 human subjects. The subjects included 24 subjects with diabetes, 32 subjects with metabolic syndrome, and 75 subjects receiving statin treatment. Subjects were administered the sPLA2 inhibitor A-002, a prodrug form of A-001, twice a day at varying dosages from 50 to 500 mg. The structures of A-002and A-001 are set forth below. At two weeks and four weeks after the first administration, sPLA2 levels were measured and compared to pre-administration baseline levels.
# 84 subjects with stable coronary artery disease were randomized to receive placebo or A-002 via oral administration twice a day over a four week administration period. […]
# [1] = 100 mg, statin subgroup of ITT population
# [2] = 250 mg, diabetes subgroup of ITT population
# [3] = 250 mg, non-diabetes subgroup of ITT population
smiles,measurement,setting,value
"CCc1c(C(=O)C(N)=O)c2c(OCC(=O)OC)cccc2n1Cc1ccccc1 [A-002, [[3-(2-Amino-1,2-dioxoethyl)-2-ethyl-1-(phenylmethyl)-1H-indol-4-yl]oxy]acetic acid methyl ester]","sPLA2 Change from baseline at week 4, Range",[1],-5.70 to 0.00 ng/mL
same,"sPLA2 level, Baseline, Mean",[1],2.72 ng/mL
same,"sPLA2 level, Baseline, Median",[1],2.65 ng/mL
same,"sPLA2 level, Baseline, Range",[1],0.05 to 6.00 ng/mL
same,"sPLA2 level, Week 2, Mean",[1],0.66 ng/mL
same,"sPLA2 level, Week 2, Median",[1],0.40 ng/mL
same,"sPLA2 level, Week 2, Range",[1],0.05 to 2.90 ng/mL
same,"sPLA2 level, Week 4, Mean",[1],0.44 ng/mL
same,"sPLA2 level, Week 4, Median",[1],0.40 ng/mL
same,"sPLA2 level, Week 4, Range",[1],0.05 to 1.00 ng/mL
same,"sPLA2 Change from baseline at week 2, Mean","250 mg, ITT population",-2.02 ng/mL
same,"sPLA2 Change from baseline at week 2, Median","250 mg, ITT population",-1.90 ng/mL
same,"sPLA2 Change from baseline at week 2, Range","250 mg, ITT population",-4.20 to -0.20 ng/mL
same,"sPLA2 Change from baseline at week 4, Mean","250 mg, ITT population",-2.13 ng/mL
same,"sPLA2 Change from baseline at week 4, Median","250 mg, ITT population",-2.20 ng/mL
same,"sPLA2 Change from baseline at week 4, Range","250 mg, ITT population",-4.20 to 0.20 ng/mL
same,"sPLA2 level, Baseline, Mean","250 mg, ITT population",2.88 ng/mL
same,"sPLA2 level, Baseline, Median","250 mg, ITT population",2.40 ng/mL
same,"sPLA2 level, Baseline, Range","250 mg, ITT population",1.30 to 5.20 ng/mL
same,"sPLA2 level, Week 2, Mean","250 mg, ITT population",0.73 ng/mL
same,"sPLA2 level, Week 2, Median","250 mg, ITT population",0.35 ng/mL
same,"sPLA2 level, Week 2, Range","250 mg, ITT population",0.05 to 4.40 ng/mL
same,"sPLA2 level, Week 4, Mean","250 mg, ITT population",0.61 ng/mL
same,"sPLA2 level, Week 4, Median","250 mg, ITT population",0.35 ng/mL
same,"sPLA2 level, Week 4, Range","250 mg, ITT population",0.05 to 2.30 ng/mL
same,"sPLA2 Change from baseline at week 2, Mean",[2],-1.83 ng/mL
same,"sPLA2 Change from baseline at week 2, Median",[2],-1.10 ng/mL
same,"sPLA2 Change from baseline at week 2, Range",[2],-4.20 to -0.20 ng/mL
same,"sPLA2 Change from baseline at week 4, Mean",[2],-1.75 ng/mL
same,"sPLA2 Change from baseline at week 4, Median",[2],-1.25 ng/mL
same,"sPLA2 Change from baseline at week 4, Range",[2],−4.20 to +0.20 ng/ml
same,"sPLA2 level, Baseline, Mean",[2],3.00 ng/mL
same,"sPLA2 level, Baseline, Median",[2],3.00 ng/mL
same,"sPLA2 level, Baseline, Range",[2],1.30 to 4.70 ng/mL
same,"sPLA2 level, Week 2, Mean",[2],0.60 ng/mL
same,"sPLA2 level, Week 2, Median",[2],0.50 ng/mL
same,"sPLA2 level, Week 2, Range",[2],0.20 to 1.10 ng/mL
same,"sPLA2 level, Week 4, Mean",[2],0.68 ng/mL
same,"sPLA2 level, Week 4, Median",[2],0.50 ng/mL
same,"sPLA2 level, Week 4, Range",[2],0.05 to 1.50 ng/mL
same,"sPLA2 Change from baseline at week 2, Mean",[3],-2.08 ng/mL
same,"sPLA2 Change from baseline at week 2, Median",[3],-2.00 ng/mL
same,"sPLA2 Change from baseline at week 2, Range",[3],-3.80 to -0.80 ng/mL
same,"sPLA2 Change from baseline at week 4, Mean",[3],-2.25 ng/mL
same,"sPLA2 Change from baseline at week 4, Median",[3],-2.20 ng/mL
same,"sPLA2 Change from baseline at week 4, Range",[3],-3.50 to -1.20 ng/mL
same,"sPLA2 level, Baseline, Mean",[3],2.84 ng/mL
same,"sPLA2 level, Baseline, Median",[3],2.40 ng/mL
same,"sPLA2 level, Baseline, Range",[3],1.50 to 5.20 ng/mL
same,"sPLA2 level, Week 2, Mean",[3],0.76 ng/mL
same,"sPLA2 level, Week 2, Median",[3],0.30 ng/mL
same,"sPLA2 level, Week 2, Range",[3],0.05 to 4.40 ng/mL
same,"sPLA2 level, Week 4, Mean",[3],0.60 ng/mL
same,"sPLA2 level, Week 4, Median",[3],0.30 ng/mL
same,"sPLA2 level, Week 4, Range",[3],0.05 to 2.30 ng/mL

# Source: patent publication US20090062369A1, “USE OF SECRETORY PHOSPHOLIPASE A2 (SPLA2) INHIBITORS TO DECREASE SPLA2 LEVELS” (priority 2007, published 2009)
